Test system: T1, CYP3A
T1 construct: gene Cyp3a1; native isoenzyme mixture in liver microsomes of female SD rats
Assay: UHPLC-MS/MS of 1-hydroxymidazolam formation, cocktail probe, Michaelis-Menten fit
Settings: liver microsomes of vehicle control rats; cocktail of six substrates together; NADPH regeneration system, pH 7.4, 37 °C

For `Cc1ncc2n1-c1ccc(Cl)cc1C(c1ccccc1F)=NC2` [midazolam], the Km was 1.99 ± 0.267 µM.

— publication PMC5217299, “Triptolide Induces hepatotoxicity via inhibition of CYP450s in Rat liver microsomes” (BMC Complementary and Alternative Medicine, 2017)
